Test results published in patent publication US12070467B2, “Method of treating ciliated tissue using CSA micelles” (Brigham Young University, priority 2018, dated 2024).
Several values for one entry are separate records, joined by “and”; a condition that tells them apart may be missing. Equal entries are not always repeated. Where two headings read alike, the source gives them in different places.

How the values were obtained:
S. aureus ATCC 25923 = assay: Minimum inhibitory concentration (MIC), broth microdilution; assay type: cell-based, Staphylococcus aureus; conditions: 37° C., 18-20 h
Protocol: (§1) Staphylococcus aureus (ATCC 25923) and Pseudomonas aeruginosa (ATCC 47085 (PA01)) were grown from fresh colonies in trypticase soy broth (TSB) and incubated overnight at 37° C. Fungal cultures, Candida albicans (ATCC 90028) and Candida auris (CDC 0382, 0384, 0387, and 0389), were grown overnight in sabouraud dextrose broth (SDB) or Roswell Park Memorial Institute medium (RPMI). Cultures of bacteria and fungi were centrifuged, and pellets were washed three times with phosphate buffered saline (PBS) and further resuspended in fresh PBS. Bacterial cultures were diluted in TSB and fungal cultures were diluted in SDB or RPMI to […] or 10^6 CFU/mL (optical density (OD) readings at 600 nm).
(§2) Minimum inhibitory concentrations (MICs) were measured using the broth microdilution protocol described by the Clinical and Laboratory Standards Institute. […] Aliquots (100 μL) of a prepared inoculum (10^6 CFU/mL for bacteria and […] CFU/mL for fungi) were added, and plates were incubated at 37° C. for 18-20 h. Bacterial or fungal growth was visually observed to determine the MICs. Negative and positive controls were included for each set of MIC measurements. For studies with pluronic, the surfactant was added at 4% and 5% to the initial inocula in each experiment. Measurements were performed in triplicate for all susceptibility tests.

C. albicans ATCC 90028 = assay: as above; assay type: cell-based, Candida albicans; conditions: 37° C., 18-20 h
Protocol: as §1, §2

[1] = test system: S. aureus ATCC 25923 biofilm; assay: Minimum biofilm eradication concentration (MBEC); assay type: cell-based, Staphylococcus aureus; conditions: 48 h biofilm, 24 h treatment
Protocol: as §1
(§3) Inocula (10^6 CFU/mL) of bacterial and fungal strains (P. aeruginosa, S. aureus, C. albicans, and C. auris) were incubated at 37° C. for 48 h in 1 mL of TSB or SDB in 96-well plates. Following incubation, the growth medium was gently removed, and wells were washed three times with sterile PBS. […] Wells, including well edges, were scraped thoroughly with a plastic spatula. Well contents were removed in 1 mL of neutralizing broth (Dey-Engley, Sigma-Aldrich) and placed in a sonicating water bath (Fisher Scientific FS60, 42 kHz, 100 W, Pittsburgh, PA, USA) to disrupt biofilms. […] After 24 h or 48 h of incubation at 37° C., colonies were counted and MBECs were determined. […]

[2] = test system: P. aeruginosa ATCC 47085 biofilm; assay: Minimum biofilm eradication concentration (MBEC); assay type: cell-based, Pseudomonas aeruginosa; conditions: 48 h biofilm, 24 h treatment
Protocol: as §1, §3

[3] = test system: biofilms of S. aureus (ATCC 25923), P. aeruginosa (ATCC 47085), C. albicans (ATCC 90028), C. auris (CDC 384); assay: Antibiofilm colorimetric (XTT) assay, percent survival (FIG. 3); assay type: cell-based; conditions: 24 h, p<0.05 relative to controls
Protocol: Biofilm formation by selected bacterial and fungal strains was quantified by measuring metabolic activity within biofilms using 2,3-bis-(2-methoxy-4-nitro-5-sulfophenyl)-2H-tetrazolium-5-carboxanilide (XTT). Biofilms were formed in 96-well plates and incubated for 48 h at 37° C. […] After incubation, the wells were carefully washed with PBS. A solution of 10 mM menadione in 100% acetone was added to an XTT solution (0.5 mg/mL) and mixed. An aliquot of the XTT/menadione solution (100 μL) was added to each well. Each plate was then wrapped in aluminum foil and incubated for 2-3 h at 37° C. To prepare to read the optical density, aliquots of the supernatant (70 μL) were removed from each well. Using a microtiter plate reader, colorimetric changes were measured at 490 nm. […] (control). To corroborate the antibiofilm data from counting bacterial and fungal colonies, a colorimetric assay was performed to quantify biofilms remaining on surfaces after treatment. Results were normalized to untreated controls. […] Antibiofilm results determined through colorimetric (XTT) assay represented as percent survival. […]

[4] = test system: P. aeruginosa (ATCC 47085); assay: Kinetics of bactericidal activity (FIG. 4); assay type: cell-based, Pseudomonas aeruginosa; conditions: detection limit two logs
Protocol: (§4) Cultures were incubated at 37° C. At 5, 15, 30, 60, and 120 min, aliquots were removed from each well and added to neutralizing buffer to ensure that no further antibacterial activity occurred. These samples were then serially diluted and plated on TSA or SDA. Cultures were incubated at 37° C. for 24 h or 48 h, and colonies were counted and recorded.
Detection limit was two logs.

S. aureus = assay: Kinetics of bactericidal activity; assay type: cell-based, Staphylococcus aureus; conditions: CSA-131 100 μg/mL, pluronic 4%, data not shown
Protocol: as §4
FIG. 4 is a line graph comparing the kinetic antibacterial activity of CSA compositions with micelles compared to a control without CSA. Inocula of just over 10^6 CFU/mL were reduced to the detection limit within 15 min. […] Detection limit was two logs.

[5] = test system: cilia on porcine trachea explants; conditions: for Number of explants (out of 12) clearing beads, <10 min / Number of explants (out of 12) clearing beads, <20 min / Number of explants (out of 12) clearing beads, <30 min / Number of explants (out of 12), No Clearance: CSA-131 100 μg/mL for 1 h; for Number of explants (out of 12) clearing beads, <20 min: between 10 and 20 min; for Number of explants (out of 12) clearing beads, <30 min: between 20 and 30 min; for Number of explants (out of 12), No Clearance: no clearance (>30 min)
Protocol: In this example, the effect of CSA compositions with and without micelles was tested using ciliated porcine lung tissue. […] An ex vivo assay was used to evaluate pluronic-containing formulations, and in this assay the beating of cilia can be actively observed. […] This method involves sectioning porcine trachea, supported in a nutrient medium, placing small beads on one side of the explant, and measuring the transfer (clearance) of the beads to the other side of the explants (FIG. 5). […] Twelve explants were used for each test condition, and the results are reported as the number clearing beads in a given amount of time.
Normal healthy porcine trachea and lung tissue was excised very fresh from slaughter. After aseptic collection, whole tissues were transported in a 1:1 mixture of Dulbecco's modified Eagle's medium (DMEM) and RPMI, which was pre-warmed and supplemented with penicillin-streptomycin-glutamine 100× (Hyclone, Logan, UT, USA). Explants were washed by tissue immersion three to four times in warm, fresh DMEM/RPMI media. Explants were maintained by continuous immersion in DMEM/RPMI media in a 5% CO2-95% air mixture in a humidified incubator at 37° C.
Tracheas were washed and extra exterior tissues to the cartilage were removed. Tracheas were opened and cut into approximately 2×1 cm explants consisting of the respiratory mucosa and underlying cartilage. […] Explants were then placed on small circular filter papers, which were placed on top of 1% agarose gel plugs bathed in medium in 6-well plates. […] Five microliters of a suspension of 1 μm diameter polystyrene microsphere beads (Polysciences, Inc., Warrington, PA, USA) were pipetted on one edge of epithelial surfaces and evaluated for their complete clearance (movement) across the surface with categorization of clearance in under 10 min, between 10 and 20 min, between 20 and 30 min, and no clearance (>30 min). Independent replicates were completed for each time point. Outcomes were then counted and a percentage of clearance was determined.

[6] = CSA-131 100 μg/mL with pluronic (4%)

SMILES: CCCCCCCCCCCCNCCC[C@@H](C)[C@H]1CC[C@H]2[C@@H]3[C@H](OCCCN)C[C@@H]4C[C@H](OCCCN)CC[C@]4(C)[C@H]3C[C@H](OCCCN)[C@]12C.Cl.Cl.Cl.Cl [CSA-131]
- MIC (S. aureus ATCC 25923): 1 µg/mL
- MIC (C. albicans ATCC 90028): 0.5 µg/mL
- MBEC [1]: 100 µg/mL
- MBEC [2]: 100 µg/mL
- Biofilm remaining after treatment (XTT, percent survival vs untreated control) ([3]; CSA-131 100 μg/mL alone): Significant decreases in biofilm
- Biofilm remaining after treatment (XTT, percent survival vs untreated control) ([3]; CSA-131 100 μg/mL with pluronic, difference to CSA-131 alone not significant): Significant decreases in biofilm
- Time for inocula of just over 106 CFU/mL to be reduced to the detection limit ([4]; CSA-131 100 μg/mL alone): ≤ 15 min
- Time for inocula of just over 106 CFU/mL to be reduced to the detection limit [4, 6]: ≤ 15 min
- Difference in kinetic activity of the ceragenin alone and with pluronic (S. aureus): no significant differences
- Number of explants (out of 12) clearing beads, <10 min ([5]; 0% pluronic): 3/12
- Number of explants (out of 12) clearing beads, <20 min ([5]; 0% pluronic): 2/12
- Number of explants (out of 12) clearing beads, <30 min ([5]; 0% pluronic): 1/12
- Number of explants (out of 12), No Clearance ([5]; 0% pluronic): six of 12 and 6/12
- Number of explants (out of 12) clearing beads, <10 min ([5]; 1% pluronic): 4/12
- Number of explants (out of 12) clearing beads, <20 min ([5]; 1% pluronic): 2/12
- Number of explants (out of 12) clearing beads, <30 min ([5]; 1% pluronic): 1/12
- Number of explants (out of 12), No Clearance ([5]; 1% pluronic): 5/12
- Number of explants (out of 12) clearing beads, <10 min ([5]; 2% pluronic): 7/12
- Number of explants (out of 12) clearing beads, <20 min ([5]; 2% pluronic): 3/12
- Number of explants (out of 12) clearing beads, <30 min ([5]; 2% pluronic): 2/12
- Number of explants (out of 12) clearing beads, <10 min ([5]; 3% pluronic): 7/12
- Number of explants (out of 12) clearing beads, <20 min ([5]; 3% pluronic): 4/12
- Number of explants (out of 12) clearing beads, <30 min ([5]; 3% pluronic): 1/12
- Number of explants (out of 12) clearing beads, <10 min ([5]; 4% pluronic): 8/12
- Number of explants (out of 12) clearing beads, <20 min ([5]; 4% pluronic): 4/12
- Number of explants (out of 12) clearing beads, <10 min ([5]; 5% pluronic): 10/12
- Number of explants (out of 12) clearing beads, <20 min ([5]; 5% pluronic): 2/12
- Influence on bead clearance [5, 6]: did not influence bead clearance
- Bead clearance / ciliary activity compared with the control ([5]; CSA-131 100 μg/mL, 5% pluronic): the same as the control
